The target in assay [1] is T1, Acetylcholine receptor; alpha1/beta1/delta/gamma (Homo sapiens, UniProt P02708+P07510+P11230+Q07001). Nature of the assay: Change in membrane potential in TE-671 cells expressing acetylcholine neuromuscular receptors. The class given is functional, cell-based.
For assay [2], the target named is T1, Acetylcholine receptor; alpha1/beta1/delta/gamma. Put plainly: Percentage efficacy in TE671 cells expressing acetylcholine neuromuscular receptor as change in membrane potential. The class given is functional, cell-based. The conditions noted are these: TE-671.
Assay [3] concerns the target T2, Neuronal acetylcholine receptor; alpha3/beta4 (Rattus norvegicus) (UniProt P04757+P12392). Put plainly: Binding affinity (Ki) for rat nicotinic acetylcholine receptor alpha3-beta4 subunits versus 0.5 nM [3H](1)-epibatidine. The class given is protein-complex assay.
In assay [4] the target is T3, Neuronal acetylcholine receptor; alpha4/beta2 (Homo sapiens, UniProt P17787+P43681). Nature of the assay: Percentage efficacy in K-177 cells expressing acetylcholine central neuronal receptor type alpha-4 beta2 subunits as change in membrane potential. The class given is functional, cell-based.
The target of assay [5] is T3, Neuronal acetylcholine receptor; alpha4/beta2. Nature of the assay: Change in membrane potential in K-177 cells expressing acetylcholine central neuronal receptor alpha4-beta2 subunits. The class given is functional, cell-based.
Assay [6] addresses Neuronal acetylcholine receptor; alpha3/beta4 (Rattus norvegicus, UniProt P04757+P12392). Put plainly: Effective concentration in KXalpha-3-beta-4R2 cells expressing rat nicotinic acetylcholine receptor alpha3-beta4 subunits. The class given is functional, cell-based.
Assay [7] deals with Neuronal acetylcholine receptor; alpha4/beta2 (Rattus norvegicus) (UniProt P09483+P12390). Nature of the assay: Binding affinity (Ki) for rat brain nicotinic receptors […] alpha-4 and beta2 subunits versus 0.5 nM [3H](1)-epibatidine.
For assay [8], the target named is T2, Neuronal acetylcholine receptor; alpha3/beta4 (Rattus norvegicus). Nature of the assay: Percentage efficacy in KXalpha-3-beta-4R2 cells expressing rat nicotinic acetylcholine receptor alpha-3 beta4 subunits relative to (1)-epibatidine. It is filed as functional, cell-based.

Among the data in ChEMBL document CHEMBL1141898, “Halogenated and isosteric cytisine derivatives with increased affinity and functional activity at nicotinic acetylcholine receptors” (Bioorg Med Chem Lett, 2005) are EC50, Efficacy and Affinity values, retold here.

T3 sequence (P17787 whole entry): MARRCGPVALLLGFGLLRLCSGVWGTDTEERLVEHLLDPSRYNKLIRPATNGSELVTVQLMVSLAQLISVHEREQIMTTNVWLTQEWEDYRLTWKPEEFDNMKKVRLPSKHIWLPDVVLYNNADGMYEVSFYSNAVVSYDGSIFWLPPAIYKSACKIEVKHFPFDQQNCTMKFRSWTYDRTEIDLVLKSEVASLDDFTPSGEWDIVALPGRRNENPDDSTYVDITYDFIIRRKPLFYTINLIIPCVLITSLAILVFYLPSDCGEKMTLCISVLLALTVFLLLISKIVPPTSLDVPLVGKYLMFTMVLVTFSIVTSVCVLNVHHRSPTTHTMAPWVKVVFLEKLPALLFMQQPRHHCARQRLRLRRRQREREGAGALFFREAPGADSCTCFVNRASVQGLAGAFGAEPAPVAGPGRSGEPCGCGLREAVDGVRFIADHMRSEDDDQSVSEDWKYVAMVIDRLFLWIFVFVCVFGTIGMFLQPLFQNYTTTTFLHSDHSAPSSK
T3 sequence (P43681 whole entry): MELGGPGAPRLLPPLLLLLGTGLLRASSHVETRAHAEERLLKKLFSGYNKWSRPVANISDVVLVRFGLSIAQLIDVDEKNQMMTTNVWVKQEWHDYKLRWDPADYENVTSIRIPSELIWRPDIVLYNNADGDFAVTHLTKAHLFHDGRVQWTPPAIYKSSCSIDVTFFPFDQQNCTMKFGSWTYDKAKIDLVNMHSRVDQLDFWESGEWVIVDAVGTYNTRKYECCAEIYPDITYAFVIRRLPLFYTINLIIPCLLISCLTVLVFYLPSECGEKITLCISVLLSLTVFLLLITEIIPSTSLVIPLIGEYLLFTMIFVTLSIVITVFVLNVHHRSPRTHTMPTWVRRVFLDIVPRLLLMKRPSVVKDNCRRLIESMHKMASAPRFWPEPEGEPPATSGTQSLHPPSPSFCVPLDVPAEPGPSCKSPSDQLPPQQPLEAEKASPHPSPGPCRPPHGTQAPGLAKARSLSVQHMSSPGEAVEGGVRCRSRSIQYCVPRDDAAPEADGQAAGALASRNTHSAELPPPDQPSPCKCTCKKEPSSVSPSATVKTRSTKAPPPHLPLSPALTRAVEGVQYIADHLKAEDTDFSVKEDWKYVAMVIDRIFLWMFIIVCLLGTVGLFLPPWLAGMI
T1 sequence (P02708 whole entry): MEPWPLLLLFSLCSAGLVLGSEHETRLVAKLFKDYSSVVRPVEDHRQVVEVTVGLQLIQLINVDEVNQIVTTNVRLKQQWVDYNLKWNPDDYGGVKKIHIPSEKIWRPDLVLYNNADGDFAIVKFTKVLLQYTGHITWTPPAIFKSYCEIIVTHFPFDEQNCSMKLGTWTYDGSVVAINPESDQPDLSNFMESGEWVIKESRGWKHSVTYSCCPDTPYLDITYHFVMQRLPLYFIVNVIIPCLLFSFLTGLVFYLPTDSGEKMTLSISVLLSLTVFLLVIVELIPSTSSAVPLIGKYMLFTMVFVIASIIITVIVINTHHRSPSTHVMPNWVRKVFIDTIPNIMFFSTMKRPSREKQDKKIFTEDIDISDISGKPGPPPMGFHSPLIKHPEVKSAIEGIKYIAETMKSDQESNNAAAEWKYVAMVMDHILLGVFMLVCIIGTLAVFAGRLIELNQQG
T1 sequence (P07510 whole entry): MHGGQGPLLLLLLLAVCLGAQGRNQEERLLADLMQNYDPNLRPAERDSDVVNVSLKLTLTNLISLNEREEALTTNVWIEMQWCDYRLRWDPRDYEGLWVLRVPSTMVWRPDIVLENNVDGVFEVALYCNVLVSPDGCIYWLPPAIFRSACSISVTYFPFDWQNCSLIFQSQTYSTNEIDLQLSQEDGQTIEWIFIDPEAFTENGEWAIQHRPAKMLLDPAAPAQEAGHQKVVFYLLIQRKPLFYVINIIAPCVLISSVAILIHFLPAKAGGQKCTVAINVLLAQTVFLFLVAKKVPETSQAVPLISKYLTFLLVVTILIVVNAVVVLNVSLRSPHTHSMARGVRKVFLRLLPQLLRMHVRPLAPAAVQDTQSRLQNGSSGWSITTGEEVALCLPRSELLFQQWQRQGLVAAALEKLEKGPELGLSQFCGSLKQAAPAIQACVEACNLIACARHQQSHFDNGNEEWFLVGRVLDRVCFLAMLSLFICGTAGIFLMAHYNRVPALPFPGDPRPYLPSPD
T1 sequence (P11230 whole entry): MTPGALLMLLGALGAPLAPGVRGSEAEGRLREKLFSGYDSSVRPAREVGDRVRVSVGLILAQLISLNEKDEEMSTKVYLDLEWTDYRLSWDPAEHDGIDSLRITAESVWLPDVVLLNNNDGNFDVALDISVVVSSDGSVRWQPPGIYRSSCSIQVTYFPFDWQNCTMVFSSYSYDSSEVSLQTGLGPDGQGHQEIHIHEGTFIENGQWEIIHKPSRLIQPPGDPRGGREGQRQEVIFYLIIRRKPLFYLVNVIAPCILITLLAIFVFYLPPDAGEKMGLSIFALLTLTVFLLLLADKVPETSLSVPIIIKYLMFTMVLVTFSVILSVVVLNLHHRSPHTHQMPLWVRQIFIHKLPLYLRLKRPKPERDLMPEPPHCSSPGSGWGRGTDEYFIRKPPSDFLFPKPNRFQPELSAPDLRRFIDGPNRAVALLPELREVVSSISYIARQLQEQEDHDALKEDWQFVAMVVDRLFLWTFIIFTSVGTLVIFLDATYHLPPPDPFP
T1 sequence (Q07001 whole entry): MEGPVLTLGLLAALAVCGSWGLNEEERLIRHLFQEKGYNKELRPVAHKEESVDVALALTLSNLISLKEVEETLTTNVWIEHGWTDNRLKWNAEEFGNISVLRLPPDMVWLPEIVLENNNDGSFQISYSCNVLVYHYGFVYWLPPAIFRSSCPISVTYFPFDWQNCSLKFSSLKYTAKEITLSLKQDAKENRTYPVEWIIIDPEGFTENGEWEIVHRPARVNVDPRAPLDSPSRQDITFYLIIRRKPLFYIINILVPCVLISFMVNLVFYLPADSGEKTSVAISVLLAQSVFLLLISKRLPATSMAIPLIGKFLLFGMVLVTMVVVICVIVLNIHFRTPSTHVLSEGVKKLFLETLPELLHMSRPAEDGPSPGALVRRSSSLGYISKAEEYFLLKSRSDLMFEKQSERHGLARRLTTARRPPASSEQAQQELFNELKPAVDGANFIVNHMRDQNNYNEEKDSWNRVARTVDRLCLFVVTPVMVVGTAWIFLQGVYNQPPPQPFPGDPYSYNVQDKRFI
Neuronal acetylcholine receptor; alpha3/beta4, sequence (P04757 whole entry): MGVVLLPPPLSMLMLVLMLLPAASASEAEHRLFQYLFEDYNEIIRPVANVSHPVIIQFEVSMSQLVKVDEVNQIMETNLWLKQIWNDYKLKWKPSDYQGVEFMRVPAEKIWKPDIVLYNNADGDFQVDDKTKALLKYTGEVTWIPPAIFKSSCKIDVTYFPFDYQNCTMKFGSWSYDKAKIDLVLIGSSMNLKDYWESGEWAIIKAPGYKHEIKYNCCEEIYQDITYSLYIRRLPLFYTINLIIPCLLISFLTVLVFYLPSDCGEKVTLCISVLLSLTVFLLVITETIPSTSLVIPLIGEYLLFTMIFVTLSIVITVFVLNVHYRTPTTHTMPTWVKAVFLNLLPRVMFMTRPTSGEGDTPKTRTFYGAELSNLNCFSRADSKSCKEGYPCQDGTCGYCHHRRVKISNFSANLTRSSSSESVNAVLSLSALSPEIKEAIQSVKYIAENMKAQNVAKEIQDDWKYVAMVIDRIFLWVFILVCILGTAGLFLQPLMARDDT
Neuronal acetylcholine receptor; alpha3/beta4, sequence (P12392 whole entry): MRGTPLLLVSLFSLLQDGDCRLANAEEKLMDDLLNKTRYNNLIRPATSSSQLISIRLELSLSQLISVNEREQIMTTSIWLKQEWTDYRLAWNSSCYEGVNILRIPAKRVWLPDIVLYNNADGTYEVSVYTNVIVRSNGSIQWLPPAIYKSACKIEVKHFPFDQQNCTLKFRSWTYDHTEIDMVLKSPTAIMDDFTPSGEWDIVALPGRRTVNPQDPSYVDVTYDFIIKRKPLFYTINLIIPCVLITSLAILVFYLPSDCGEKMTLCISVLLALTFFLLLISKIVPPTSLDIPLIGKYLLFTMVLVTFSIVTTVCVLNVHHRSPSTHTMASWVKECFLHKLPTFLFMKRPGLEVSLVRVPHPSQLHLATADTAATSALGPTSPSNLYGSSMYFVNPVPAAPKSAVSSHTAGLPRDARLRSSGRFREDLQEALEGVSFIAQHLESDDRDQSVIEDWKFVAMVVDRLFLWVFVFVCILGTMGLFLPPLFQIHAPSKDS

Usually EC50 stands for the concentration at which the effect is half-maximal. For the molecule `O=c1cccc2n1C[C@@H]1CNC[C@H]2C1` [CYTISINICLINE], the EC50 came to 11 nM in assay [1], 0.42 nM in assay [5] and 25 nM in assay [6]. Also, the Efficacy worked out at 55% in assay [2], 59% in assay [4] and 62% in assay [8]. The results for the Affinity in assay [3] and in assay [7] were 220 nM and 0.124 nM, respectively.
On to `Clc1ccc(C2CC3CCC2N3)cn1` (configuration not stated) [EPIBATIDINE], for which the EC50 in assay [1] came out at 0.053 nM. Besides, the Efficacy in assay [2] and in assay [4] was 100% throughout. In addition, the Affinity in assay [3] worked out at 0.51 nM; in assay [7], 0.0072 nM.
As to `O=c1c(I)cc(I)c2n1CC1CNCC2C1` (configuration not stated), the concentration for a half-maximal effect (EC50) in assay [1] is greater than 100 nM; in assay [5], 42 nM; in assay [6] it was greater than 100000 nM. The Efficacy in assay [2] was less than 10%; in assay [4], 42%; in assay [8], less than 10%. Further, the figures for the Affinity in assay [3] and in assay [7] were 4200 nM and 0.52 nM, respectively.
On to `O=c1c(Cl)cc(Cl)c2n1CC1CNCC2C1` (configuration not stated), for which the EC50 in assay [1], in assay [5] and in assay [6] was greater than 100 nM throughout. Further, the Efficacy is 23% in assay [2], 20% in assay [4] and less than 10% in assay [8]. Moreover, the Affinity in assay [3] came to 39000 nM; in assay [7], 2.5 nM.
For the molecule `O=c1c(Br)ccc2n1CC1CNCC2C1` (configuration not stated), the figures for the EC50 in assay [1], in assay [5] and in assay [6] were 31 nM, 0.05 nM and 0.88 nM, respectively. In addition, the Efficacy was determined as 59% in assay [2], 85% in assay [4] and 74% in assay [8]. Besides, the results for the Affinity in assay [3] and in assay [7] were 7.5 nM and 0.01 nM, respectively.
Turning to `O=c1c(Br)cc(Br)c2n1CC1CNCC2C1` (configuration not stated), the EC50 in assay [1], in assay [5] and in assay [6] was greater than 100 nM each time. Besides, the Efficacy is less than 10% in assay [2], 23% in assay [4] and less than 10% in assay [8]. Moreover, the Affinity in assay [3] was 45000 nM; in assay [7], 10.8 nM.
For the molecule `O=c1ccc(Br)c2n1CC1CNCC2C1` (configuration not stated), the concentration giving a half-maximal response (EC50) is greater than 100 nM in assay [1], 1.1 nM in assay [5] and 39 nM in assay [6]. Further, the Efficacy was less than 10% in assay [2] and 70% in assay [4]. The Affinity turned out to be 380 nM in assay [3] and 0.308 nM in assay [7].
In the case of `S=c1cccc2n1CC1CNCC2C1` (configuration not stated), the EC50 in assay [1] is greater than 100 nM; in assay [5], 2.2 nM; in assay [6] it was greater than 100 nM. Further, the Efficacy in assay [2] is less than 10%; in assay [4] it was 28%; in assay [8] it was 10%. In addition, the Affinity in assay [3] is 27000 nM; in assay [7], 0.832 nM.
On to `O=c1c(I)ccc2n1CC1CNCC2C1` (configuration not stated), for which the concentration for a half-maximal effect (EC50) in assay [1] was 45 nM; in assay [5], 0.036 nM; in assay [6], 0.55 nM. Further, the results for the Efficacy in assay [2], in assay [4] and in assay [8] were 46%, 92% and 78%, respectively. Further, the Affinity in assay [3] came out at 7.4 nM; in assay [7], 0.017 nM.
On to `C[N+]1(C)CC2CC(C1)c1cccc(=O)n1C2` (configuration not stated), for which the concentration for a half-maximal effect (EC50) in assay [1] is 37 nM; in assay [5], 41 nM; in assay [6] it was greater than 100 nM. The Efficacy in assay [2] amounted to 60%; in assay [4], 70%; in assay [8] it was 29%. Moreover, the results for the Affinity in assay [3] and in assay [7] were 1500 nM and 0.238 nM, respectively.
For `O=c1c(Cl)ccc2n1CC1CNCC2C1` (configuration not stated), the figures for the EC50 in assay [1], in assay [5] and in assay [6] were 28 nM, 0.11 nM and 5.1 nM, respectively. The values for the Efficacy in assay [2], in assay [4] and in assay [8] were 53%, 72% and 71%, respectively. In addition, the Affinity came out at 18 nM in assay [3] and 0.022 nM in assay [7].
For the molecule `O=c1ccc(Cl)c2n1CC1CNCC2C1` (configuration not stated), the figures for the EC50 in assay [1], in assay [5] and in assay [6] were greater than 100 nM, 4 nM and greater than 100 nM, respectively. The results for the Efficacy in assay [2], in assay [4] and in assay [8] were less than 10%, 58% and less than 10%, respectively. The Affinity was found to be 3900 nM in assay [3] and 2.5 nM in assay [7].
